Laboratory results taken from US12208130B2, “Treatment of women affected with polycystic ovary syndrome” (INSTITUT NATIONAL DE LA SANTE ET DE LA RECHERCHE MEDICALE …, priority 2017, dated 2025).
Where a SMILES comes first, the peptide text is derived from it. [ ]: non-standard residue; d: D form. dPhe(4-Cl) = N[C@H](Cc1ccc(Cl)cc1)C(=O)O; d2Nal = N[C@H](Cc1ccc2ccccc2c1)C(=O)O; dCit = NC(=O)NCCC[C@@H](N)C(=O)O; d3Pal = N[C@H](Cc1cccnc1)C(=O)O

Assays:
[1] = test system: placenta; assay: Quantitative RT-PCR of E19.5 placental tissue; assay type: in vivo, mouse; conditions: dams i.p. AMH + GnRH antag E16.5-E18.5; placenta E19.5
Protocol: PAMH+GnRH antag. (FIG. 3D) Schematic representation of tail-tip blood sampling in adult diestrus female mice (3-4 months old). (FIG. 3E) Tail blood was collected every 10 min for 2 h and LH measured from 10 a.m-12 p.m in adult (P60) diestrus females (Control, n=8; PAMH, n=10; PAMH+GnRH antag, n=9; One-way ANOVA and Tukey's multiple comparison post hoc test, F(2,24)=57.06, *P<0.05, ***P<0.0001). Bars from left to right: Control, PAMH, PAMH+GnRH antag. (FIGS. 2F-1, 2F-2, 2F-3) Representative graphs for LH pulsatility over 2-hr in one female adult (P60) mouse of each treatment. Asterisks in (FIG. 3F) indicate the number of LH pulses/2-hr. (FIG. 3G) Mean circulating testosterone and LH levels were analyzed in pregnant PBS-treated (n=4) and AMH-treated (n=4) dams at embryonic day (E) 19.5 of gestation. […] (FIG. 3H) Relative mRNA expression of placental Cyp191a (aromatase) in control (n=4) and AMH (n=4)-treated pregnant animals at E19.5. Cyp191a expression in the placenta is […] in AMH-treated pregnant dams as compared to control-treated pregnant dams (Unpaired Student's t-test, t(6)=5.414, **P<0.005). Values are expressed as relative to the mean of each treatment. All values are expressed as mean±s.e.m. (FIGS. 3I-1, 3I-2, 3I-3, 3I-4) Dams were injected from E16.5 to E18.5 with either PBS (vehicle, n=9-11), AMH (n=8-10), AMH+GnRH antag (n=5) and trunk blood was collected at E19.5 for hormonal measurements by ELISA. Data were combined from at least two independent experiments. In FIGS. 3I-1, 3I-2, 3I-3, 3I-4: left bar: vehicle; middle bar: AMH; right bar: AMH+GnRH antagonist. (FIGS. 3J-1, 3J-2, 3J-3, 3J-4)) Real-time PCR analysis of expression levels of AMHR2, CYP191A (cytochrome P450 family 19A1, aromatase), CYP11A1 (cytochrome P450 family 11A1), HSD3B1 (3beta-hydroxysteroid dehydrogenase/delta(5)-delta(4)isomerase type I or hydroxy-delta-5-steroid dehydrogenase) mRNA in the placenta of E19.5 dams. Dams were injected i.p. from E16.5 to E18.5 with either PBS (vehicle, n=8-17), AMH (n=7-11), or AMH+GnRH antag (n=8-13). Data were combined from three independent experiments. […] In FIGS. 3J-1, 3J-2, 3J-3, 3J-4: left bar: vehicle; middle bar: AMH; right bar: AMH+GnRH antagonist.
E19.5 placental tissue from female control and PAMH embryos was isolated for total RNA was using Trizol (ThermoFisher Scientific, Cat #15596026) and the RNeasy Lipid Tissue Mini Kit (Qiagen; Cat #74804) using the manufacturer's instructions. For gene expression analyses, mRNAs […] from E19.5 placental tissue were reverse transcribed using SuperScript® IV Reverse Transcriptase (Life Technologies). Real-time PCR was carried out on Applied Biosystems 7900HT Fast Real-Time PCR system using exon-boundary-specific TaqMan® Gene Expression Assays (Applied Biosystems): Amhr2 (AMHR2-Mm00513847_m1); Cyp19a1 (Cyp19a1-Mm00484049_m1); Cyp11a1 (Cyp11a1-Mm00490735_m1); HSD3b1 (Hsd3b1-Mm01261921_mH); GnRH (Gnrh-Mm01315604_m1); GnRH-R (Gnrhr-Mm00439143_m1); LH-R (Lhcgr-Mm00442931_m1). Control housekeeping genes: ActB (ActB-Mm00607939_s1); GAPDH (GAPDH-Mm99999915_g1).
Quantitative RT-PCR was performed using TaqMan® Low-Density Arrays (Applied Biosystems) on an Applied Biosystems thermocycler using the manufacturer's recommended cycling conditions. Gene expression data were analyzed using SDS 2.4.1 and Data Assist 3.01 software (Applied Biosystems), with ActB and GAPDH as control house-keeping mRNA following a standardized procedure. […]

[2] = test system: pregnant mice; assay: Dam body weight and fat mass, aborted embryos, litter size, pup weight at birth; assay type: in vivo, mouse
Protocol: Dams were injected from E16.5 to E18.5 with either PBS (vehicle, n=8-11), AMH (n=10), AMH+GnRH antag (n=8-10). Body weight (grams: g); (FIG. 9A), subcutaneous fat mass (FIG. 9B) and perigonadal fat mass (FIG. 9C) was measured in dams at gestational day 19.5. (FIG. 9D) Dams were injected from E16.5 to E18.5 with either PBS (vehicle, n=9), AMH (n=9), AMH+GnRH antag (n=9). Dams were sacrificed one day later and the number of aborted embryos per litter was calculated. (FIGS. 9E, 9F) Dams were injected from E16.5 to E18.5 with either PBS (vehicle, n=3), AMH (n=3), AMH+GnRH antag (n=3). The number of pups per litter (FIG. 9E) and the weight of the pups at birth (FIG. 9F) was calculated for each treatment group (vehicle, n=12 pups; AMH, n=11 pups; AMH+GnRH antag, n=12 pups). Values are represented as the mean±s.e.m. […] Data were combined from three independent experiments. FIGS. 9A to 9F: left bar: vehicle; middle bar: AMH; right bar: AMH+GnRH antagonist.

CC(=O)N[C@H](Cc1ccc2ccccc2c1)C(=O)N[C@H](Cc1ccc(Cl)cc1)C(=O)N[C@H](Cc1cccnc1)C(=O)N[C@@H](CO)C(=O)N[C@@H](Cc1ccc(O)cc1)C(=O)N[C@H](CCCNC(N)=O)C(=O)N[C@@H](CC(C)C)C(=O)N[C@@H](CCCNC(=N)N)C(=O)N1CCC[C@H]1C(=O)N[C@H](C)C(N)=O [Cetrorelix acetate, Ac-D-2Nal-D-Phe(4-Cl)-D-3Pal-Ser-Tyr-D-Cit-Leu-Arg-Pro-D-Ala-NH2] (Ac-[d2Nal][dPhe(4-Cl)][d3Pal]SY[dCit]LRP[dA]-NH2)
AMH-driven downregulation of placental HSD3B1 gene expression [1]: prevented the downregulation
AMH-driven inhibition of placental CYP19A1 mRNA [1]: prevented
placental CYP11A1 expression [1]: did not find any difference
placental LHR expression [1]: normalized
placental expression of GnRH and GnRHR [1]: unchanged
body weights of pups at birth ([2]; dams i.p. AMH+GnRH antag E16.5-E18.5): did not observe any changes
body weight, subcutaneous fat mass or perigonadal fat mass of dams ([2]; dams injected 3 days with AMH+GnRH antag, E19.5): did not find any changes
